Data reported in patent US20100124782A1, “Composition For Repairing Defect In Skin Or Gingival Soft Tissue And Method Of Culturing Autologous Fibroblasts” (Applied Cell Biotechnologies, Inc., priority 2007, published 2010).

System: fibroblasts separated from skin tissue
Test: Collagen concentration in fibroblast culture supernatant (human collagen ELISA quantitative kit)
Format: cell-based
Settings: vitamin C (0.01-1 mM) added to the culture medium of skin fibroblasts; unit not given
Protocol: Culture of the fibroblasts separated from skin tissue was carried out according to a well-known method (R. I. Freshney, Culture of Animal Cells: A MANUAL OF BASIC TECHNIQUE (Wiley-Liss, Inc. 2000)). Specifically, the fibroblasts separated from skin tissue were being subcultured, subsequently followed by expansion culture, to be end up to a few T-225 flasks in the end. Vitamin C in the range of 0.01-1 mM was added to the culture medium three days before the end of culture (scheduled day of injection). Furthermore, the culture medium was replaced with a 2-5% self-serum addition culture medium with no vitamin C added. The cultured fibroblasts were exfoliated from a culture vessel with a dispersion liquid with no EDTA solution or enzyme, and the cells were separated from the dispersion liquid by centrifugation. Then, washing in a physiological salt solution were performed more than three times. The collagen concentration contained in the culture supernatant of the fibroblasts cultured in the culture medium with vitamin C added of Example 1 and the culture supernatant with no vitamin C added by the human collagen ELISA quantitative kit (AC Biotechnologies).

SMILES: O=C1O[C@H]([C@@H](O)CO)C(O)=C1O [vitamin C]
- collagen concentration contained in the culture supernatant: 11.3
